In patent publication US9084828B2, “Oligomer-protein tyrosine kinase inhibitor conjugates” (Nektar Therapeutics, priority 2009, dated 2015):

Experiments:
[1] = target: FGFR2 (Homo sapiens, UniProt P21802); assay: Activity against various protein tyrosine kinases: FGFR2; format: biochemical
[2] = target: T1, PKCz (Homo sapiens, UniProt Q05513); assay: Activity against various protein tyrosine kinases: PKCz; format: biochemical
T1 sequence (Q05513 1-592): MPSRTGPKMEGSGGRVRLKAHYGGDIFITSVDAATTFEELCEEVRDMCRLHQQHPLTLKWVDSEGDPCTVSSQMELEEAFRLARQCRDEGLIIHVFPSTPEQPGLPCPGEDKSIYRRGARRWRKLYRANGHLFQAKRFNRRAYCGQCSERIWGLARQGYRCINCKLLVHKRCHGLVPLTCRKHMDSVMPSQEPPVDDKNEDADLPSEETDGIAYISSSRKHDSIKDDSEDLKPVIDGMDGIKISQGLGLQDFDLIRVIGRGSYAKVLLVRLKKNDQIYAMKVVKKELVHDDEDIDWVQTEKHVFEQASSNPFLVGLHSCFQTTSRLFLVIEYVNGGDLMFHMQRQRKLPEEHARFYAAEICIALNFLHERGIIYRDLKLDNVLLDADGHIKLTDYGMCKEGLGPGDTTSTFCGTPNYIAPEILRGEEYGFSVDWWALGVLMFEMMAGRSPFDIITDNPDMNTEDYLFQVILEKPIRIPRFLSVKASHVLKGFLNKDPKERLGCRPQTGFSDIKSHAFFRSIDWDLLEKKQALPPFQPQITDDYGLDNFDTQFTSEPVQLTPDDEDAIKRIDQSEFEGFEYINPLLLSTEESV

[3] = target: LYN (Homo sapiens, UniProt P07948); assay: Activity against various protein tyrosine kinases: LYN; format: biochemical
Sequence of LYN (P07948 whole entry, species assumed): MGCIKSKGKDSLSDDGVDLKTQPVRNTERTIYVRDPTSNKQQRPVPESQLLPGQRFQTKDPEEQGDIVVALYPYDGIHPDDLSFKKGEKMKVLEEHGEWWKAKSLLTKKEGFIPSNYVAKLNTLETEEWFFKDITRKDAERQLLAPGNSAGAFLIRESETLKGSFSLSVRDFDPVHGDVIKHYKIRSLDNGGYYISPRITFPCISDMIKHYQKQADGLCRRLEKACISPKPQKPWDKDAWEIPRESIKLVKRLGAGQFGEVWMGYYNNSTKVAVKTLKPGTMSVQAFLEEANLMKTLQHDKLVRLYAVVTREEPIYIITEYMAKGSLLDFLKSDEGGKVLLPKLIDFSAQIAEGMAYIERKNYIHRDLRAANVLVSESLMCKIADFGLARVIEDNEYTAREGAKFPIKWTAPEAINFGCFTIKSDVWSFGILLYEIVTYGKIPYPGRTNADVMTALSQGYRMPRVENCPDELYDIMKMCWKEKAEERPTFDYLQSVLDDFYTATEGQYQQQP

[4] = target: T2, p38-delta (Homo sapiens, UniProt O15264); assay: Activity against various protein tyrosine kinases: p38-delta; format: biochemical
T2 sequence (O15264 1-365): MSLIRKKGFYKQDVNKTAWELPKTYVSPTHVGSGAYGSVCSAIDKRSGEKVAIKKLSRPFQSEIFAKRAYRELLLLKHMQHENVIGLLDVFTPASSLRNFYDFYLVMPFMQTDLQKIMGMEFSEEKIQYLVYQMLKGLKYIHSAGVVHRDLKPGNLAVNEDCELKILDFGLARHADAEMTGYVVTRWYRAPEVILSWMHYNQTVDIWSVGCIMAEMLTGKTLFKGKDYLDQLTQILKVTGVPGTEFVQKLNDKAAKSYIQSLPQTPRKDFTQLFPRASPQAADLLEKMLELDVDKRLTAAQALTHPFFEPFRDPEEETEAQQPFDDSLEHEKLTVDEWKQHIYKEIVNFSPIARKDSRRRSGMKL

[5] = target: CKIT (Homo sapiens, UniProt P10721); assay: Activity against various protein tyrosine kinases: CKIT; format: biochemical
Sequence of CKIT (P10721 26-976): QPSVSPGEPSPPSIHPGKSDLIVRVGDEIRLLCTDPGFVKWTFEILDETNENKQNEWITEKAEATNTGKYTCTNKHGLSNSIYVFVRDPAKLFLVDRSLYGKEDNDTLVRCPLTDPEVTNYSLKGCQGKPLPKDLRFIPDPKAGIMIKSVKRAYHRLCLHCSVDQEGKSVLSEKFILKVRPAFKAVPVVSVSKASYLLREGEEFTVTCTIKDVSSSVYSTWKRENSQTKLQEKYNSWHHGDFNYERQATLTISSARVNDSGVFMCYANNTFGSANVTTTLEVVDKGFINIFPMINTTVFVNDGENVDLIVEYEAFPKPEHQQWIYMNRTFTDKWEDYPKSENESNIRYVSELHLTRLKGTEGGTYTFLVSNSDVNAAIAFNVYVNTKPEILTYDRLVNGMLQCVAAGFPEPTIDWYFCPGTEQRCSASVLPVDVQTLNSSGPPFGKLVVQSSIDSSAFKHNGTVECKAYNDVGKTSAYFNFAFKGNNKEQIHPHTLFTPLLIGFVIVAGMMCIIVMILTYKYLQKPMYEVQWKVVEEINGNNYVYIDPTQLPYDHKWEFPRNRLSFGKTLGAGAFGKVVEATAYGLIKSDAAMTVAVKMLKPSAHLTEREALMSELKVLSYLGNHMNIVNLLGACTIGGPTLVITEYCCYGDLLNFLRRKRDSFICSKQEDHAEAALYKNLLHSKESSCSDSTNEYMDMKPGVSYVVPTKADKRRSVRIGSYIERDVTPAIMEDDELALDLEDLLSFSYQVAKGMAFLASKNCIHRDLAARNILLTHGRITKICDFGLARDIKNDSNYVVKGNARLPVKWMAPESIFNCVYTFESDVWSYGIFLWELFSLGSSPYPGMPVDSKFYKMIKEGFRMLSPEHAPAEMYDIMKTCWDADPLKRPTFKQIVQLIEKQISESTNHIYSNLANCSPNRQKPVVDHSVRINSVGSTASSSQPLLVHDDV

[6] = target: ABL (Homo sapiens, UniProt P00519); assay: ABL tyrosine kinase inhibition, off-chip incubation mobility-shift kinase assay (Caliper LABCHIP 3000); conditions: for IC50: ABL, ATP at Km 14 μM, unit inferred; for ABL AVG % Activity at Specific Concentration: average of replicate wells
Sequence of ABL (P00519 whole entry): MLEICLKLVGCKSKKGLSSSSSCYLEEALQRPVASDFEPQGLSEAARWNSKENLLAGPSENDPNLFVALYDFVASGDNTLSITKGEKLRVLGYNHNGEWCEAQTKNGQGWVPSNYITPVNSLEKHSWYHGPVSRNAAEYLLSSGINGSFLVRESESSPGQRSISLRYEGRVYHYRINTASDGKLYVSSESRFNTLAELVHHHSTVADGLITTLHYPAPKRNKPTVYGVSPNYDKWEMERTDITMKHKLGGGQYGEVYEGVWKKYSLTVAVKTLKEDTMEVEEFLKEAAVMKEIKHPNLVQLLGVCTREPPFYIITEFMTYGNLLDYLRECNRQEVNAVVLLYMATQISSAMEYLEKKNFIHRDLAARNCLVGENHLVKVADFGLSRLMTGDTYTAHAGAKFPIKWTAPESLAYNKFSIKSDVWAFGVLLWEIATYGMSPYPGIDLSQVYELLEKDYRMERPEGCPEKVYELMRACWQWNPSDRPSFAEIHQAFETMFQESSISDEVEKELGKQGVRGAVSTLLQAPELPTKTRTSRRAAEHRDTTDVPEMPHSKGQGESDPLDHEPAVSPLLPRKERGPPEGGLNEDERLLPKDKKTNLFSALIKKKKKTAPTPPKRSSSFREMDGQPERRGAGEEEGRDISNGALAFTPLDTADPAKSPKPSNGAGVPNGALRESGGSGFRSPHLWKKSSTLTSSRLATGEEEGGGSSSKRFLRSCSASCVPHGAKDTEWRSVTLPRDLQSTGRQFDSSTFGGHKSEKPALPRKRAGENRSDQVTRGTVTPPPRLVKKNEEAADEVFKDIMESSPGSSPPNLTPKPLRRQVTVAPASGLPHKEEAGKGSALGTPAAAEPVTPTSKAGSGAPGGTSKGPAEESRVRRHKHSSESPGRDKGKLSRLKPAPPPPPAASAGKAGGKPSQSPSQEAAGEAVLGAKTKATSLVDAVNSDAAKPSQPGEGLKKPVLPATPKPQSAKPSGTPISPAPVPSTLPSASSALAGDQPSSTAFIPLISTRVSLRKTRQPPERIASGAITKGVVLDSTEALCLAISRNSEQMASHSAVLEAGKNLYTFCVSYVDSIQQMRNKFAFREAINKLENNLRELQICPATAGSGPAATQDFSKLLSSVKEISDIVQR

[7] = target: T3, Flt3(D835Y) (Homo sapiens, UniProt P36888, D835Y); assay: Activity against various protein tyrosine kinases: Flt3(D835Y); format: biochemical
T3 sequence (P36888 27-993 D835Y): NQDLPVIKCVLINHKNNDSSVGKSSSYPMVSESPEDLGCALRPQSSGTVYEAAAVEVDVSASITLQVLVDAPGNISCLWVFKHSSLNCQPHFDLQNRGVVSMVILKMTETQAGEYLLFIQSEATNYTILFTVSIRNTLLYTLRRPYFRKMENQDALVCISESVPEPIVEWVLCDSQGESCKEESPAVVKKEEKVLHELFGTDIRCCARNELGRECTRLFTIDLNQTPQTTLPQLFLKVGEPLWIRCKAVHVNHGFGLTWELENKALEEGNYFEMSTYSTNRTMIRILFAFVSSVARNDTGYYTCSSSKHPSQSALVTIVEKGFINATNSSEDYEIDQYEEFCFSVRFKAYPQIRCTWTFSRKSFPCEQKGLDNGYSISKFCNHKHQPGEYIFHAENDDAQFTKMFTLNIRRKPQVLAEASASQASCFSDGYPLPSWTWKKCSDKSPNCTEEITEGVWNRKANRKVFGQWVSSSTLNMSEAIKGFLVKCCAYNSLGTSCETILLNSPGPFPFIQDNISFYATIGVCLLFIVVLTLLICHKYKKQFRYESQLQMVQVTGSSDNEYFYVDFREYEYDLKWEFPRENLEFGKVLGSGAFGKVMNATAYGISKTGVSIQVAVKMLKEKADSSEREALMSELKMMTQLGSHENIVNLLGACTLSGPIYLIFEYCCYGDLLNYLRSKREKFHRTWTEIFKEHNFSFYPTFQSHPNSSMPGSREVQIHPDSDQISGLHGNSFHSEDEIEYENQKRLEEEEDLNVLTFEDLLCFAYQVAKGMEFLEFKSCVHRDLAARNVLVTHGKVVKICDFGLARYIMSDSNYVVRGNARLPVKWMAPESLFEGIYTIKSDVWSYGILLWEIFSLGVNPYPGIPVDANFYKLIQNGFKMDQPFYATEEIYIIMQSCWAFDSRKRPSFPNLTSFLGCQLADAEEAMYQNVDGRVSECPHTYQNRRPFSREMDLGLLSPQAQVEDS
Experimental: Using techniques know those of ordinary skill in the art, compounds were tested for activity against various protein tyrosine kinases.

[8] = at 1.0E−09 (concentration unit not given)
[9] = at 1.0E−10 (concentration unit not given)
[10] = at 1.0E−11 (concentration unit not given)
[11] = at 3.0E−09 (concentration unit not given)
[12] = at 3.0E−10 (concentration unit not given)
[13] = at 3.0E−11 (concentration unit not given)

Sequence of FGFR2 (P21802 22-821, species assumed): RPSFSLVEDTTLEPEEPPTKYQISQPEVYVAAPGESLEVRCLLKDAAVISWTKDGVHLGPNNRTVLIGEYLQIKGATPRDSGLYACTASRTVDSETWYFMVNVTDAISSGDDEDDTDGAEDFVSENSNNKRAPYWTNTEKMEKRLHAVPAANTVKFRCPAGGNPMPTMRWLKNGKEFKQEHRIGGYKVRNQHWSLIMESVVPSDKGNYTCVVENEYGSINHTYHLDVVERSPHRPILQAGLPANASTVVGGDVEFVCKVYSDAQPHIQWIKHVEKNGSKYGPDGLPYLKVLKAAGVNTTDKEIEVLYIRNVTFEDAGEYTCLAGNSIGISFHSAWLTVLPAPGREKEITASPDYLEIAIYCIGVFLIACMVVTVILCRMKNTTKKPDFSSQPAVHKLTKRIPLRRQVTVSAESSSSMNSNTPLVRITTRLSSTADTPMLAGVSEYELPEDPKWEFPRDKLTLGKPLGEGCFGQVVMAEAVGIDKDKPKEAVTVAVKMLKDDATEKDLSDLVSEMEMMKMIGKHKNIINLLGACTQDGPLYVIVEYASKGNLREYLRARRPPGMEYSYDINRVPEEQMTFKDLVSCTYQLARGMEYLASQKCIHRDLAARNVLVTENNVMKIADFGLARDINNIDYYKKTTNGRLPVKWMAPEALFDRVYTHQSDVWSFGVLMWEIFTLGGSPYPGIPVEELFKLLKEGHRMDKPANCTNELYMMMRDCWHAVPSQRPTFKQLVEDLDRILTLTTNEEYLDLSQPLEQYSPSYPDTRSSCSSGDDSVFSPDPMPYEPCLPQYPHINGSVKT

Row | Compound | % Inhibition at 10 nM [1] | % Inhibition at 1 μM [1] | % Inhibition at 10 nM [2] | % Inhibition at 1 μM [2] | % Inhibition at 10 nM [3] | % Inhibition at 1 μM [3] | % Inhibition at 10 nM [4] | % Inhibition at 1 μM [4] | % Inhibition at 10 nM [5] | % Inhibition at 1 μM [5] | IC50 [6] | ABL AVG % Activity at Specific Concentration [6, 8] | ABL AVG % Activity at Specific Concentration [6, 9] | ABL AVG % Activity at Specific Concentration [6, 10] | ABL AVG % Activity at Specific Concentration [6, 11] | ABL AVG % Activity at Specific Concentration [6, 12] | ABL AVG % Activity at Specific Concentration [6, 13] | % Inhibition at 10 nM [7] | % Inhibition at 1 μM [7]
1 | COCCOCCOCCNC(=O)OCCN1CCN(c2cc(Nc3ncc(C(=O)Nc4c(C)cccc4Cl)s3)nc(C)n2)CC1 [mPEG3-NHCOO-Dasatinib] | −2% | 38% | −12% | −13% | 99% | 99% | 0% | 2% | 34% | 100% | 300 pM | 4% | 81% | 99% | 0% | 47% | 95% | 6% | 10%
2 | COCCOCCOCCOCCOCCOCCOCCNC(=O)OCCN1CCN(c2cc(Nc3ncc(C(=O)Nc4c(C)cccc4Cl)s3)nc(C)n2)CC1 [mPEG7-NHCOO-Dasatinib] | 5% | 35% | 5% | −9% | 98% | 98% | 0% | 0% | 34% | 100% | 320 pM | 4% | 80% | 98% | −1% | 48% | 91% | 3% | 7%
